Assay results as given in article PMC10331583, “Control of fibrosis with enhanced safety via asymmetric inhibition of prolyl‐tRNA synthetase 1” (EMBO Molecular Medicine, 2023).
Like-named read-outs stand apart in the source and are kept apart here.

Experiments:
WI‐26 VA4 cells [1] = assay: CellTiter‐Glo assay (cytotoxicity)
Method: After 24 h, the cells were incubated with various concentrations of compounds for 48 h. The level of ATP as a measure of cell viability was determined using a CellTiter‐Glo® luminescent cell viability assay kit (Promega, G7571) following the manufacturer's instructions.
WI‐26 VA4 cells were seeded at 1.2 × 10^4 cells/well in 96‐well white plates. After 24 h, the cells were incubated with the indicated concentrations of compounds for 72 h. The viability was determined as described above.

WI‐26 VA4 cells [2] = assay: Collagen ELISA (secreted pro‐collagen I)
Method: WI‐26 VA4 cells were seeded at 3.5 × 10^4 cells/well on 24 well plates. After 24 h, the cells were starved of serum for 6 h. Then, the cells were incubated with the indicated concentrations of compounds in the presence of TGF‐β (2 ng/ml) (R&D systems, 240‐B‐002) for 72 h. The supernatant of the cells was collected and centrifuged at 500 g for 5 min to remove cell debris. Then, the level of pro‐collagen I in the supernatant was determined using Human Pro‐collagen I alpha 1 DuoSet ELISA (R&D systems, DY6220‐05) and DuoSet ELISA Ancillary Reagent Kit 2 (R&D systems, DY008) following the manufacturer's instructions.

[3] = log(inhibitor) vs. response, variable slope (four parameters), concentration in nM

O=C(CC1NCCCC1O)Cn1cnc2cc(Br)c(Cl)cc2c1=O (centres unmarked) [HF, Halofuginone, reference compound]
activity at 0.001 µM (WI‐26 VA4 cells [1]; Homo sapiens, WI26VA4, read-out: CellTiter-Glo % of control, 1 nM, Experiment #1, replicates): 106% | activity at 0.01 µM (WI‐26 VA4 cells [1]; Homo sapiens, WI26VA4, read-out: CellTiter-Glo % of control, 10 nM, Experiment #1, replicates): 99.6% | activity at 0.01 µM (WI‐26 VA4 cells [1]; Homo sapiens, WI26VA4, read-out: CellTiter-Glo % of control, 10 nM, Experiment #2, replicates): 85.1% | activity at 0.03 µM (WI‐26 VA4 cells [1]; Homo sapiens, WI26VA4, read-out: CellTiter-Glo % of control, 30 nM, Experiment #2, replicates): 74.1% | activity at 0.1 µM (WI‐26 VA4 cells [1]; Homo sapiens, WI26VA4, read-out: CellTiter-Glo % of control, 100 nM, Experiment #1, replicates): 35.7% | activity at 0.1 µM (WI‐26 VA4 cells [1]; Homo sapiens, WI26VA4, read-out: CellTiter-Glo % of control, 100 nM, Experiment #2, replicates): 30% | activity at 0.3 µM (WI‐26 VA4 cells [1]; Homo sapiens, WI26VA4, read-out: CellTiter-Glo % of control, 300 nM, Experiment #2, replicates): 17.6% | activity at 1 µM (WI‐26 VA4 cells [1]; Homo sapiens, WI26VA4, read-out: CellTiter-Glo % of control, 1000 nM, Experiment #1, replicates): 17.1% | activity at 1 µM (WI‐26 VA4 cells [1]; Homo sapiens, WI26VA4, read-out: CellTiter-Glo % of control, 1000 nM, Experiment #2, replicates): 29.9% | activity at 3 µM (WI‐26 VA4 cells [1]; Homo sapiens, WI26VA4, read-out: CellTiter-Glo % of control, 3000 nM, Experiment #2, replicates): 11% | activity at 10 µM (WI‐26 VA4 cells [1]; Homo sapiens, WI26VA4, read-out: CellTiter-Glo % of control, 10000 nM, Experiment #1, replicates): 1.85% | activity at 10 µM (WI‐26 VA4 cells [1]; Homo sapiens, WI26VA4, read-out: CellTiter-Glo % of control, 10000 nM, Experiment #2, replicates): 4.64% | activity at 30 µM (WI‐26 VA4 cells [1]; Homo sapiens, WI26VA4, read-out: CellTiter-Glo % of control, 30000 nM, Experiment #2, replicates): 1.49% | activity at 0.0003 µM (WI‐26 VA4 cells [1]; Homo sapiens, WI26VA4, read-out: CellTiter-Glo % of control, average, 0.3 nM, average): 103% | activity at 0.001 µM (WI‐26 VA4 cells [1]; Homo sapiens, WI26VA4, read-out: CellTiter-Glo % of control, average, 1 nM, average): 102% | activity at 0.01 µM (WI‐26 VA4 cells [1]; Homo sapiens, WI26VA4, read-out: CellTiter-Glo % of control, average, 10 nM, average): 92.4% | activity at 0.03 µM (WI‐26 VA4 cells [1]; Homo sapiens, WI26VA4, read-out: CellTiter-Glo % of control, average, 30 nM, average): 77.3% | activity at 0.1 µM (WI‐26 VA4 cells [1]; Homo sapiens, WI26VA4, read-out: CellTiter-Glo % of control, average, 100 nM, average): 30.6% | activity at 0.3 µM (WI‐26 VA4 cells [1]; Homo sapiens, WI26VA4, read-out: CellTiter-Glo % of control, average, 300 nM, average): 18.1% | activity at 1 µM (WI‐26 VA4 cells [1]; Homo sapiens, WI26VA4, read-out: CellTiter-Glo % of control, average, 1000 nM, average): 23.7% | activity at 3 µM (WI‐26 VA4 cells [1]; Homo sapiens, WI26VA4, read-out: CellTiter-Glo % of control, average, 3000 nM, average): 10.2% | activity at 10 µM (WI‐26 VA4 cells [1]; Homo sapiens, WI26VA4, read-out: CellTiter-Glo % of control, average, 10000 nM, average): 3.39% | activity at 30 µM (WI‐26 VA4 cells [1]; Homo sapiens, WI26VA4, read-out: CellTiter-Glo % of control, average, 30000 nM, average): 1.53% | activity at 100 µM (WI‐26 VA4 cells [1]; Homo sapiens, WI26VA4, read-out: CellTiter-Glo % of control, average, 100000 nM, average): 0.00424% | CellTiter-Glo LogIC50 (best-fit value) (WI‐26 VA4 cells [1]; [3]): 1.708 | IC50 (WI‐26 VA4 cells [2]; Homo sapiens, WI26VA4, 72 h, read-out: IC50 for collagen level, TGF‐β 2 ng/ml, 72 h (Fig 1B)): 15.2 nM | IC50 (WI‐26 VA4 cells [2]; Homo sapiens, WI26VA4, read-out: Collagen IC50 (best-fit value), log(inhibitor) vs. response, variable slope (four parameters) (converted)): 15.2 nM | activity at 1 µM (WI‐26 VA4 cells [2]; Homo sapiens, WI26VA4, read-out: Collagen, % of control (single replicates per experiment), 1000 nM): 3.91% | activity at 0.0003 µM (WI‐26 VA4 cells [2]; Homo sapiens, WI26VA4, read-out: Collagen, % of control, average, 0.3 nM, average): 96.4% | activity at 0.001 µM (WI‐26 VA4 cells [2]; Homo sapiens, WI26VA4, read-out: Collagen, % of control, average, 1 nM, average): 103% | activity at 0.003 µM (WI‐26 VA4 cells [2]; Homo sapiens, WI26VA4, read-out: Collagen, % of control, average, 3 nM, average): 101% | activity at 0.01 µM (WI‐26 VA4 cells [2]; Homo sapiens, WI26VA4, read-out: Collagen, % of control, average, 10 nM, average): 71.9% | activity at 0.03 µM (WI‐26 VA4 cells [2]; Homo sapiens, WI26VA4, read-out: Collagen, % of control, average, 30 nM, average): 21.6% | activity at 0.1 µM (WI‐26 VA4 cells [2]; Homo sapiens, WI26VA4, read-out: Collagen, % of control, average, 100 nM, average): 3.57% | activity at 0.3 µM (WI‐26 VA4 cells [2]; Homo sapiens, WI26VA4, read-out: Collagen, % of control, average, 300 nM, average): 2.57% | activity at 1 µM (WI‐26 VA4 cells [2]; Homo sapiens, WI26VA4, read-out: Collagen, % of control, average, 1000 nM, average): 3.27% | activity at 0.0003 µM (WI‐26 VA4 cells [2]; Homo sapiens, WI26VA4, read-out: Efficacy, % of control, average, 0.3 nM): 104% | activity at 0.001 µM (WI‐26 VA4 cells [2]; Homo sapiens, WI26VA4, read-out: Efficacy, % of control, average, 1 nM): 104% | activity at 0.003 µM (WI‐26 VA4 cells [2]; Homo sapiens, WI26VA4, read-out: Efficacy, % of control, average, 3 nM): 108% | activity at 0.01 µM (WI‐26 VA4 cells [2]; Homo sapiens, WI26VA4, read-out: Efficacy, % of control, average, 10 nM): 73% | activity at 0.03 µM (WI‐26 VA4 cells [2]; Homo sapiens, WI26VA4, read-out: Efficacy, % of control, average, 30 nM): 24.9% | activity at 0.1 µM (WI‐26 VA4 cells [2]; Homo sapiens, WI26VA4, read-out: Efficacy, % of control, average, 100 nM): 3.73% | activity at 0.3 µM (WI‐26 VA4 cells [2]; Homo sapiens, WI26VA4, read-out: Efficacy, % of control, average, 300 nM): 2.78% | activity at 1 µM (WI‐26 VA4 cells [2]; Homo sapiens, WI26VA4, read-out: Efficacy, % of control, average, 1000 nM): 2.54% | activity at 0.0003 µM (WI‐26 VA4 cells [2]; Homo sapiens, WI26VA4, read-out: Efficacy, % of control, single replicate, 0.3 nM): 114% | activity at 0.001 µM (WI‐26 VA4 cells [2]; Homo sapiens, WI26VA4, read-out: Efficacy, % of control, single replicate, 1 nM): 112% | activity at 1 µM (WI‐26 VA4 cells [2]; Homo sapiens, WI26VA4, read-out: Efficacy, % of control, single replicate, 1000 nM): 2.31% | Collagen HillSlope (best-fit value) (WI‐26 VA4 cells [2]; log(inhibitor) vs. response, variable slope (four parameters)): -2.183 | Collagen LogIC50 (best-fit value) (WI‐26 VA4 cells [2]; [3]): 1.183 | IC50 (WI‐26 VA4 cells [2]; read-out: IC50 for collagen level, TGF‐β 2 ng/ml, 72 h (Fig 1B)): 15 nM
